The values below are quoted from earlier work in US20140243428A1, “SELF HEALING HYDROGELS” (The Regents of the University of California, priority 2013, published 2014).

Structures are written as SMILES.

In general, pKa refers to the pH at which an ionisable group is half protonated. Consider `NCCCCCC(=O)O` [6-aminocaproic acid], for which the pKa is given as 4.4.
